The source of these data is patent US9452986B2, “6-heteroaryloxy- or 6-aryloxy-quinoline-2-carboxamides and method of use” (AbbVie Inc., priority 2014, dated 2016).

One experiment concerns the target recombinant human Nav1.8 (Homo sapiens (Human), UniProt Q9Y5Y9). Briefly: FRET-based membrane potential assay, recombinant human sodium channel Nav1.8. The format is cell-based.
Experiment [1] relates to spinal nerve ligated rats. Briefly: Rat spinal nerve ligation (SNL) model of neuropathic pain, paw withdrawal threshold. The format is in vivo. Particulars: SNL dose 100 mg/kg; rat, von Frey paw withdrawal threshold; read-out: SNL MPE. From the text:
Rat Spinal Nerve Ligation (SNL) Model of Neuropathic Pain.
The male Sprague Dawley rats (Charles River Laboratories, Wilmington, Mass.), weighing 150-175 g at the time of surgery, were placed under isoflurane anesthesia and a 1.5 cm incision was made dorsal to the lumbosacral plexus. The paraspinal muscles (left side) were separated from the spinous processes, the left L5 and L6 spinal nerves isolated, and tightly ligated with 5-0 silk suture distal to the dorsal root ganglion. Care was taken to avoid ligating the L4 spinal nerve. Following spinal nerve ligation, a minimum of 7 days of recovery and no more than 3 weeks was allowed prior to the behavioral testing (mechanical sensitivity). Only rats with threshold scores ≦4.5 g were considered allodynic and utilized in pharmacological experiments.
Mechanical sensitivity was measured using calibrated von Frey filaments (Stoelting, Wood Dale, Ill.). […] The von Frey filaments were presented perpendicularly to the plantar surface of the selected hind paw, and then held in this position for approximately 8 seconds with enough force to cause a slight bend in the filament. Positive responses included an abrupt withdrawal of the hind paw from the stimulus, or flinching behavior immediately following removal of the stimulus. […] A percent maximal possible effect (% MPE) of testing compound was calculated according to the formula: (Log [compound−treated threshold]−Log [vehicle−treated threshold])/(Log [maximum threshold]−Log [vehicle−treated threshold])×100%, where the maximum threshold was equal to 15 g.
The animals were housed in Association for Assessment and Accreditation of Laboratory Animal Care (AAALAC) approved facilities at AbbVie Inc. in a temperature-regulated environment under a controlled 12-hour light-dark cycle, with lights on at 6:00 a.m. Food and water were available ad libitum at all times except during testing. All testing was done following procedures outlined in protocols approved by AbbVie Inc.s' Institutional Animal Care and Use Committee.

In the next experiment the target is recombinant human Nav1.7 (Homo sapiens (Human), UniProt Q15858). Description: FRET-based membrane potential assay, recombinant human sodium channel Nav1.7. In kind it is cell-based. The settings on record: read-out: FRET-Membrane Potential Nav1.7 IC50. An outline of the steps:
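Channel activation used veratridine at its EC80, set by a dilution curve each experiment, together with Leiurus scorpion venom, added 3 min after compound. Membrane-potential ratio signals from FLIPR Tetra in HEPES-buffered HBSS were fitted to a four-parameter Hill equation for percent inhibition and IC50.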

In another experiment the test system is osteoarthritic rats. Briefly: Osteoarthritic (OA) pain induced by sodium monoiodoacetate (MIA), hind limb grip force. The format is in vivo, rat. The settings on record: Rattus norvegicus, 480 h, rat, 20 days following MIA injection, hind limb grip force, read-out: OA MPE; for inhibition in vivo at 30 mg/kg: OA dose 30 mg/kg; for inhibition in vivo at 10 mg/kg: OA dose 10 mg/kg. An outline of the steps:
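Male Sprague Dawley rats (150-175 g) received a single unilateral intra-articular knee injection of MIA (3 mg/rat) and were tested 20 days later. Peak hind limb grip force (CFmax, g force/kg body weight, mean of two trials) was scored blinded. % effect set vehicle as 0% and age-matched naïve rats as 100%.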

[2] abbreviates: HEK293 cells stably expressing recombinant human Nav1.8, veratridine + scorpion venom depolarization.
[3] abbreviates: HEK293 cells stably expressing recombinant human Nav1.7, veratridine + scorpion venom depolarization.

Molecules are shown by their SMILES. Read-outs that look alike come from different tables or passages of the source.

Chain of recombinant human Nav1.8 (Q9Y5Y9 whole entry): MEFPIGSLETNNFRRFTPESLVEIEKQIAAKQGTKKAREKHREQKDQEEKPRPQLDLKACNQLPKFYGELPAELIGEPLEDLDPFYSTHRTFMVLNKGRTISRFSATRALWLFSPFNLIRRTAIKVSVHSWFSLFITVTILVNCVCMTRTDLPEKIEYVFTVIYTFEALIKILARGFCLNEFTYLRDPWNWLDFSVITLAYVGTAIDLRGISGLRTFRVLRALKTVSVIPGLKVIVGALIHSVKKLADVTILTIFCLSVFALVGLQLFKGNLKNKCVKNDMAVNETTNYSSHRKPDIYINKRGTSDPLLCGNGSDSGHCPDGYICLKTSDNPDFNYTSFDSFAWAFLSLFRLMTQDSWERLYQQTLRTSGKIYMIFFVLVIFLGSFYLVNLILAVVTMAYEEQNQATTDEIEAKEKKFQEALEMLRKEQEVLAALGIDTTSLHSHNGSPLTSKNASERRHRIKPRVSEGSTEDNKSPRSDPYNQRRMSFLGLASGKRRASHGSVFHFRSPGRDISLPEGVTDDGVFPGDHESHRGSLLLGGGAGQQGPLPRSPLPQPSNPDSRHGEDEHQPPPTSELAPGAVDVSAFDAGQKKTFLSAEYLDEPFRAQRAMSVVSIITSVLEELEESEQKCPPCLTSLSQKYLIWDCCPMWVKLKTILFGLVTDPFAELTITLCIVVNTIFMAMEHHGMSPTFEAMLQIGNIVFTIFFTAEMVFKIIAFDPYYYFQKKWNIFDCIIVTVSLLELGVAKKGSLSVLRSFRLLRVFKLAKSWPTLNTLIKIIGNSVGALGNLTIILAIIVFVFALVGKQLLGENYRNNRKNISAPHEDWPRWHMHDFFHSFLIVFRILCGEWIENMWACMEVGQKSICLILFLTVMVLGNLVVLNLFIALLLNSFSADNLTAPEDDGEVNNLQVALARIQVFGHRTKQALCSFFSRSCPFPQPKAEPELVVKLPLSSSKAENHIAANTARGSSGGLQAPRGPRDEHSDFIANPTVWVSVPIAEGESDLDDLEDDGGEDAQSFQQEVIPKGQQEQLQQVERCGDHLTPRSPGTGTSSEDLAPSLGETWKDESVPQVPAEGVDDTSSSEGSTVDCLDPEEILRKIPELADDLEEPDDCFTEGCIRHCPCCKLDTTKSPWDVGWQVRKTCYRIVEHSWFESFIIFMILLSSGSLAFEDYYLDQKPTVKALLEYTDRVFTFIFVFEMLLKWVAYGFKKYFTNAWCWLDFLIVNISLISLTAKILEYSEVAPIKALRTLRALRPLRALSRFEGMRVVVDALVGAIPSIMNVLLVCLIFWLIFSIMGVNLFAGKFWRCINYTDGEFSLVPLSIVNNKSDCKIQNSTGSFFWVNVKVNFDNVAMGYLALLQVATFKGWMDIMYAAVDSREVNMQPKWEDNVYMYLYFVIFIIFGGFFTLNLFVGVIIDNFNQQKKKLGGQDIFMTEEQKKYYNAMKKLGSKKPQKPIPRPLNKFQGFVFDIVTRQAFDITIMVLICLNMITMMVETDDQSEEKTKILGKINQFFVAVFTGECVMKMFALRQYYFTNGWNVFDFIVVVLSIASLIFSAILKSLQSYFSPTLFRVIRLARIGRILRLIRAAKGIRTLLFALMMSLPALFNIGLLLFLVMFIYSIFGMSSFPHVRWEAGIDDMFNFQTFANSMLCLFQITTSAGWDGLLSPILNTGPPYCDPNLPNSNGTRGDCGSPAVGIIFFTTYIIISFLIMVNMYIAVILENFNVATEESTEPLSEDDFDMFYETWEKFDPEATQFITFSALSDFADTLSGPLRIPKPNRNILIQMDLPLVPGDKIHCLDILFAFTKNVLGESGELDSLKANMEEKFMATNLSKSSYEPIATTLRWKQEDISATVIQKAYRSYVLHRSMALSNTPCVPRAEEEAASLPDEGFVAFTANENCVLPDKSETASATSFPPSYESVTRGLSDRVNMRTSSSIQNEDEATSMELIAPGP
Chain of recombinant human Nav1.7 (Q15858 whole entry): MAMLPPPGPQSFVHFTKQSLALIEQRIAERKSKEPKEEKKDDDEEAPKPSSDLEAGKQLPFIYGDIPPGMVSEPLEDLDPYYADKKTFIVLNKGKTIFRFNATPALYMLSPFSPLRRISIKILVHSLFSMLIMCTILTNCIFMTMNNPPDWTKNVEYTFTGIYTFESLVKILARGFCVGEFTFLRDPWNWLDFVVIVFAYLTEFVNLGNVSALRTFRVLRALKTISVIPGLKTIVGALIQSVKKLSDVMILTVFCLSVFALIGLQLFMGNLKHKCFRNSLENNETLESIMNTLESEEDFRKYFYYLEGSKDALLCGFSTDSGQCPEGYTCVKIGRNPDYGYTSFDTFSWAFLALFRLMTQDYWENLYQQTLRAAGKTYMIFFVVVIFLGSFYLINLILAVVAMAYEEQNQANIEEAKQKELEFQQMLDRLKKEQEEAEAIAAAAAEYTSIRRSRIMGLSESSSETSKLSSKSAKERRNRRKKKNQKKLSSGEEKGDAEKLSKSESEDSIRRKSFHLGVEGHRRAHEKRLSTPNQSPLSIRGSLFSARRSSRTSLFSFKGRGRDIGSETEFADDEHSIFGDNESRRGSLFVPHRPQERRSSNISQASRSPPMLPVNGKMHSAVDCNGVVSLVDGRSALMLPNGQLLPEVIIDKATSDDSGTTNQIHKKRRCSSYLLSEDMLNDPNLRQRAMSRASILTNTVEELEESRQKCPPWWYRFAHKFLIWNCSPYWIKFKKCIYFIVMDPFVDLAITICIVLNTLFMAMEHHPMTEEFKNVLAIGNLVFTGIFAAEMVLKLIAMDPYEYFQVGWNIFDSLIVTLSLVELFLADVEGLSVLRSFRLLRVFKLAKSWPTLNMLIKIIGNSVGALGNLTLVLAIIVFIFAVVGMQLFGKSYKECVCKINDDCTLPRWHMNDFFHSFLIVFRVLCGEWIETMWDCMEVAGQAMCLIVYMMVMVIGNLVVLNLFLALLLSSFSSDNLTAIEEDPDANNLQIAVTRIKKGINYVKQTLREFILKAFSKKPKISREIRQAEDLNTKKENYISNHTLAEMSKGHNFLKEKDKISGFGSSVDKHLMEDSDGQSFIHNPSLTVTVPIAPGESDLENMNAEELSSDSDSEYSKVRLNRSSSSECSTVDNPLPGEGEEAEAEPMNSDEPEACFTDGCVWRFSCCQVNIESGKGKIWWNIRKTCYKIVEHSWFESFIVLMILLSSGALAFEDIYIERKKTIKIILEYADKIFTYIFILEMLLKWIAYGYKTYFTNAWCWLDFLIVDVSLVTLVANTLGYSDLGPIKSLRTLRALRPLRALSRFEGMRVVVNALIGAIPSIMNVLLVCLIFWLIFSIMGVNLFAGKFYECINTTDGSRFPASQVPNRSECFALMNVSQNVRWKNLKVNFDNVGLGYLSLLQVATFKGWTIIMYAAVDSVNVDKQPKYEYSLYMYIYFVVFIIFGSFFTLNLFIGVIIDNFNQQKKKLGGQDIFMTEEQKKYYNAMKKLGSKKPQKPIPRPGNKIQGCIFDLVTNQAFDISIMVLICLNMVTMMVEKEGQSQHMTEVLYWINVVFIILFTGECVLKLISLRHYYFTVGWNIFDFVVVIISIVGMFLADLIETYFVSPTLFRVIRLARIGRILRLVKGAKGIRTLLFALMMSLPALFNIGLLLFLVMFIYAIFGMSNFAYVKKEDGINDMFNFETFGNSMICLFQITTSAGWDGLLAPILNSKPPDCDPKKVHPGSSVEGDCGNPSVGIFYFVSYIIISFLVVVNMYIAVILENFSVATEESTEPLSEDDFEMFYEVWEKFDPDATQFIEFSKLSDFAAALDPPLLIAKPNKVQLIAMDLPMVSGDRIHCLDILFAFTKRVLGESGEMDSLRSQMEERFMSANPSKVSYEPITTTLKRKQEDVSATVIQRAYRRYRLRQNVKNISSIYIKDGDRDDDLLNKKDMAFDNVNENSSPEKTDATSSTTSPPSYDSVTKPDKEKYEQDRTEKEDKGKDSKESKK

A word on the IC50: it is the midpoint of a concentration-inhibition curve. Take `O=C(NC1CCS(=O)(=O)C1)c1ccc2cc(Oc3ccc(C(F)(F)F)cn3)ccc2n1` (stereo not shown) [Example 2, N-(1,1-dioxidotetrahydrothiophen-3-yl)-6-{[5-(trifluoromethyl)pyridin-2-yl]oxy}quinoline-2-carboxamide]: the IC50 worked out at 648 nM on recombinant human Nav1.8 (setting [2]) and 504 nM on recombinant human Nav1.7 (setting [3]). In experiment [1], the inhibition in vivo at 100 mg/kg was 54%. Also, in the experiment on osteoarthritic rats, the inhibition in vivo at 30 mg/kg amounted to 85%.
In the case of `O=C(c1ccc2cc(Oc3ccc(C(F)(F)F)cn3)ccc2n1)N1CC(N2CCOCC2)C1` [Example 6, [3-(morpholin-4-yl)azetidin-1-yl](6-{[5-(trifluoromethyl)pyridin-2-yl]oxy}quinolin-2-yl)methanone], the figures for the IC50 on recombinant human Nav1.8 and at recombinant human Nav1.7 (setting [3]) were 4610 nM and 2930 nM, respectively. The inhibition in vivo at 100 mg/kg in experiment [1] amounted to 27%. In the experiment on osteoarthritic rats, the inhibition in vivo at 10 mg/kg came out at 72%.
Turning to `O=C(c1ccc2cc(Oc3ccc(C(F)(F)F)cn3)ccc2n1)N1CCC(N2CCOCC2)CC1` [Example 11, [4-(morpholin-4-yl)piperidin-1-yl](6-{[5-(trifluoromethyl)pyridin-2-yl]oxy}quinolin-2-yl)methanone], the IC50 at recombinant human Nav1.8 (setting [2]) was determined as 1690 nM; on recombinant human Nav1.7 (setting [3]), 1610 nM. The inhibition in vivo at 100 mg/kg in experiment [1] was 34%. Moreover, the inhibition in vivo at 10 mg/kg with osteoarthritic rats amounted to 72%.
Take `COCCNC(=O)c1ccc2cc(Oc3ccc(C(F)(F)F)cn3)ccc2n1` [Example 22, N-(2-methoxyethyl)-6-{[5-(trifluoromethyl)pyridin-2-yl]oxy}quinoline-2-carboxamide]: the values for the IC50 at recombinant human Nav1.8 (setting [2]) and on recombinant human Nav1.7 (setting [3]) were 3540 nM and 1980 nM, respectively. In experiment [1], the inhibition in vivo at 100 mg/kg stood at 72%. Besides, the inhibition in vivo at 30 mg/kg in the experiment on osteoarthritic rats was 73%.
Take `COC[C@H]1CN(C(=O)c2ccc3cc(Oc4ccc(C(F)(F)F)cn4)ccc3n2)CCN1` [Example 31, [(3R)-3-(methoxymethyl)piperazin-1-yl](6-{[5-(trifluoromethyl)pyridin-2-yl]oxy}quinolin-2-yl)methanone]: the results for the half-inhibitory concentration (IC50) on recombinant human Nav1.8 (setting [2]) and on recombinant human Nav1.7 were 1860 nM and 619 nM, respectively. For the same compound, in experiment [1], the inhibition in vivo at 100 mg/kg worked out at 64%. Moreover, in the experiment with osteoarthritic rats, the inhibition in vivo at 30 mg/kg worked out at 94%.
As to `CN(C)C(=O)CNC(=O)c1ccc2cc(Oc3ccc(C(F)(F)F)cn3)ccc2n1` [Example 33, N-[2-(dimethylamino)-2-oxoethyl]-6-{[5-(trifluoromethyl)pyridin-2-yl]oxy}quinoline-2-carboxamide], the IC50 stood at 740 nM on recombinant human Nav1.8 and 471 nM on recombinant human Nav1.7. Further, the inhibition in vivo at 100 mg/kg in experiment [1] was found to be 50%. Also, the inhibition in vivo at 30 mg/kg in the experiment with osteoarthritic rats is 61%.
Turning to `O=C(c1ccc2cc(Oc3ccc(C(F)(F)F)cn3)ccc2n1)N1CC[C@@H](F)C1` [Example 52, [(3R)-3-fluoropyrrolidin-1-yl](6-{[5-(trifluoromethyl)pyridin-2-yl]oxy}quinolin-2-yl)methanone], the inhibition in vivo at 100 mg/kg in experiment [1] worked out at 81%. Besides, the 50% inhibitory concentration (IC50) on recombinant human Nav1.7 (setting [3]) is 2980 nM. For the same compound, the inhibition in vivo at 30 mg/kg in the experiment with osteoarthritic rats was found to be 86%.
As for `O=C(NC1CC(F)(F)C1)c1ccc2cc(Oc3ccc(C(F)(F)F)cn3)ccc2n1` [Example 59, N-(3,3-difluorocyclobutyl)-6-{[5-(trifluoromethyl)pyridin-2-yl]oxy}quinoline-2-carboxamide], the inhibition in vivo at 100 mg/kg in experiment [1] was 84%. Also, the IC50 on recombinant human Nav1.7 amounted to 1700 nM. Also, the inhibition in vivo at 30 mg/kg with osteoarthritic rats amounted to 83%.
Turning to `O=C(NCC(F)(F)F)c1ccc2cc(Oc3ccc(C(F)(F)F)cn3)ccc2n1` [Example 344, N-(2,2,2-trifluoroethyl)-6-{[5-(trifluoromethyl)pyridin-2-yl]oxy}quinoline-2-carboxamide], the figures for the IC50 at recombinant human Nav1.8 (setting [2]) and on recombinant human Nav1.7 (setting [3]) were 670 nM and 2100 nM, respectively. Besides, the inhibition in vivo at 100 mg/kg in experiment [1] is 76%. In the experiment with osteoarthritic rats, the inhibition in vivo at 30 mg/kg was 59%.
